From paper PMC8991007, “Benzylic Dehydroxylation of Echinocandin Antifungal Drugs Restores Efficacy against Resistance Conferred by Mutated Glucan Synthase” (Journal of the American Chemical Society, 2022)
Values after ≈ are worked out from the molar mass of the structure shown. *1 amine or outer side, *2 acyl side, *3 side chain or, on linkers, in order; H or OH if unused. Where a SMILES comes first, the peptide text is derived from it. Bridges are numbered along the chain shown (N, C = ends). [ ]: non-standard residue; d: D form. The star is where a group is joined. hTyr(3S-OH,4S-OH,3'-OSO3H) = N[C@H](C(=O)O)[C@H](O)[C@@H](O)c1ccc(O)c(OS(=O)(=O)O)c1; Orn(4R-OH,5R-OH) = O=C([C@H](C[C@@H](O)[C@@H](O)N[*:3])N[*:1])[*:2]; Pro(3S-OH,4S-Me) = C[C@H]1CN[C@H](C(=O)O)[C@H]1O; X1 = CCCCCOc1ccc(-c2cc(-c3ccc(C(=O)*)cc3)no2)cc1; Gln(3R-OH) = NC(=O)C[C@@H](O)[C@H](N)C(=O)O; Hyp = O=C(O)[C@@H]1C[C@@H](O)CN1

Tests used:
C. albicans = test: Minimum inhibitory concentration broth double-dilution assay; type: cell-based, Candida albicans; details: 24 h, 30 °C
Experimental: (§1) The antifungal activities of compounds 1 and 2 were evaluated against a panel of 50 strains of C. albicans and C. glabrata (Table S4), including echinocandin-resistant strains that were constructed by introducing mutations within and near the defined hotspots in the FKS1 and/or FKS2 genes.[27] To evaluate antifungal activity, we determined MIC values. The MIC was defined as the lowest drug concentration that led to turbidity (measured at 600 nm) of less than or equal to 35% of that of the untreated culture. As controls, we tested CSF, MCF, ANF, and RZF.
(§2) All of the tested compounds were dissolved in anhydrous DMSO to a concentration of 5 mg/mL. Candida strains were streaked from a glycerol stock onto YPAD agar plates and grown for 24 h at 30 °C. Colonies were suspended in 1 mL of PBS and diluted to an O.D. of 0.01 at 600 nm with YPAD broth and added into flat-bottom 96-well microplates (Corning) containing a gradient of twofold dilutions per tested compound with concentrations ranging from 64 to 0.0009 μg/mL. Control wells with no drug and blank wells without yeast cells containing YPAD only were also prepared. […] Each concentration was tested in triplicate, and results were confirmed by at least two independent sets of experiments.

C. glabrata = test: as above; type: cell-based, Candida glabrata; details: 24 h, 30 °C
Experimental: as §1, §2

[1] = #2 C. albicans DPL1015 (DP-A15)
[2] = #3 C. albicans DPL1016 (DP-A15-10)

Question: How did the MIC (C. albicans; #1 C. albicans Sc5314) turn out when `CC[C@H](C)C[C@H](C)CCCCCCCCC(=O)N[C@H]1C[C@@H](O)[C@@H](NCCN)NC(=O)[C@@H]2[C@@H](O)CCN2C(=O)[C@H]([C@H](O)CCN)NC(=O)[C@H]([C@H](O)[C@@H](O)c2ccc(O)cc2)NC(=O)[C@@H]2C[C@@H](O)CN2C(=O)[C@H]([C@@H](C)O)NC1=O` [CSF, caspofungin] was run?
Answer: 0.015 µg/mL (≈ 0.0137 µM)

Question: What about the MIC (C. albicans; [1]) of the same compound?
Answer: 1 µg/mL (≈ 0.915 µM)

Question: And the MIC (C. albicans; [2])?
Answer: > 64 µg/mL

Question: And the MIC (C. albicans; #4 C. albicans T-2068 (DP-C42))?
Answer: 32 µg/mL (≈ 29.3 µM)

Question: And the MIC (C. albicans; #5 C. albicans T-2069 (DP-85))?
Answer: 16 µg/mL (≈ 14.6 µM)

Question: What about the MIC (C. albicans; #6 C. albicans (DP-89)) of the same compound?
Answer: > 64 µg/mL

Question: And the MIC (C. albicans; #7 C. albicans T-2076 (DP-194))?
Answer: 1 µg/mL (≈ 0.915 µM)

Question: What about the MIC (C. albicans; #8 C. albicans T-2077 (DP-205)) of the same compound?
Answer: 16 µg/mL (≈ 14.6 µM)

Question: And the MIC (C. glabrata; #9 C. glabrata EF1620)?
Answer: 0.031 µg/mL (≈ 0.0284 µM)

Question: And the MIC (C. glabrata; #10 C. glabrata TGL00277)?
Answer: > 64 µg/mL

Question: And the MIC (C. glabrata; #11 C. glabrata TGL00275)?
Answer: 32 µg/mL (≈ 29.3 µM)

Question: And the MIC (C. glabrata; #12 C. glabrata CST78)?
Answer: 0.015 µg/mL (≈ 0.0137 µM)

Question: And the MIC (C. glabrata; #13 C. glabrata TGL00265)?
Answer: > 64 µg/mL

Question: And the MIC (C. glabrata; #14 C. glabrata TGL00264)?
Answer: 4 µg/mL (≈ 3.66 µM)

Question: What about the MIC (C. glabrata; #15 C. glabrata TGL00263) of the same compound?
Answer: 64 µg/mL (≈ 58.5 µM)

Question: And the MIC (C. glabrata; #16 C. glabrata TGL00065)?
Answer: > 64 µg/mL

Question: And the MIC (C. glabrata; #17 C. glabrata CST34)?
Answer: 0.015 µg/mL (≈ 0.0137 µM)

Question: And the MIC (C. glabrata; #18 C. glabrata TGL00258)?
Answer: > 64 µg/mL

Question: What about the MIC (C. glabrata; #19 C. glabrata TGL00256) of the same compound?
Answer: 16 µg/mL (≈ 14.6 µM)

Question: And the MIC (C. glabrata; #20 C. glabrata TGL00107)?
Answer: > 64 µg/mL

Question: What about the MIC (C. glabrata; #21 C. glabrata TGL00056) of the same compound?
Answer: > 64 µg/mL

Question: What about the MIC (C. glabrata; #22 C. glabrata M12) of the same compound?
Answer: 0.015 µg/mL (≈ 0.0137 µM)

Question: What about the MIC (C. glabrata; #23 C. glabrata TGL00270) of the same compound?
Answer: > 64 µg/mL

Question: What about the MIC (C. glabrata; #24 C. glabrata TGL00269) of the same compound?
Answer: 16 µg/mL (≈ 14.6 µM)

Question: What about the MIC (C. glabrata; #25 C. glabrata TGL00268) of the same compound?
Answer: > 64 µg/mL

Question: And the MIC (C. glabrata; #26 C. glabrata TGL00268)?
Answer: > 64 µg/mL

Question: And the MIC (C. glabrata; #27 C. glabrata EB0911)?
Answer: 0.031 µg/mL (≈ 0.0284 µM)

Question: And the MIC (C. glabrata; #28 C. glabrata TGL00261)?
Answer: > 64 µg/mL

Question: What about the MIC (C. glabrata; #29 C. glabrata TGL00109) of the same compound?
Answer: 64 µg/mL (≈ 58.5 µM)

Question: And the MIC (C. glabrata; #30 C. glabrata TGL00259)?
Answer: > 64 µg/mL

Question: Which results are given for `CCCCCOc1ccc(-c2cc(-c3ccc(C(=O)N[C@H]4C[C@@H](O)[C@@H](O)NC(=O)[C@@H]5[C@@H](O)[C@@H](C)CN5C(=O)[C@H]([C@H](O)CC(N)=O)NC(=O)[C@H]([C@H](O)[C@@H](O)c5ccc(O)c(OS(=O)(=O)O)c5)NC(=O)[C@@H]5C[C@@H](O)CN5C(=O)[C@H]([C@@H](C)O)NC4=O)cc3)no2)cc1` [MCF, micafungin] (X1-[Orn(4R-OH,5R-OH)]T[Hyp][hTyr(3S-OH,4S-OH,3'-OSO3H)][Gln(3R-OH)][Pro(3S-OH,4S-Me)]; lactam 1-C)?
Answer: MIC (C. albicans; #1 C. albicans Sc5314): 0.031 µg/mL (≈ 0.0244 µM); MIC (C. albicans; [1]): 1 µg/mL (≈ 0.787 µM); MIC (C. albicans; [2]): 16 µg/mL (≈ 12.6 µM); MIC (C. albicans; #4 C. albicans T-2068 (DP-C42)): 4 µg/mL (≈ 3.15 µM); MIC (C. albicans; #5 C. albicans T-2069 (DP-85)): 2 µg/mL (≈ 1.57 µM); MIC (C. albicans; #6 C. albicans (DP-89)): 4 µg/mL (≈ 3.15 µM); MIC (C. albicans; #7 C. albicans T-2076 (DP-194)): 1 µg/mL (≈ 0.787 µM); MIC (C. albicans; #8 C. albicans T-2077 (DP-205)): 2 µg/mL (≈ 1.57 µM); MIC (C. glabrata; #9 C. glabrata EF1620): 0.015 µg/mL (≈ 0.0118 µM); MIC (C. glabrata; #10 C. glabrata TGL00277): 8 µg/mL (≈ 6.3 µM); MIC (C. glabrata; #11 C. glabrata TGL00275): 2 µg/mL (≈ 1.57 µM); MIC (C. glabrata; #12 C. glabrata CST78): 0.004 µg/mL (≈ 0.00315 µM); MIC (C. glabrata; #13 C. glabrata TGL00265): 1 µg/mL (≈ 0.787 µM); MIC (C. glabrata; #14 C. glabrata TGL00264): > 64 µg/mL; MIC (C. glabrata; #15 C. glabrata TGL00263): 0.125 µg/mL (≈ 0.0984 µM); MIC (C. glabrata; #16 C. glabrata TGL00065): 32 µg/mL (≈ 25.2 µM); MIC (C. glabrata; #17 C. glabrata CST34): 0.002 µg/mL (≈ 0.00157 µM); MIC (C. glabrata; #18 C. glabrata TGL00258): > 64 µg/mL; MIC (C. glabrata; #19 C. glabrata TGL00256): 0.125 µg/mL (≈ 0.0984 µM); MIC (C. glabrata; #20 C. glabrata TGL00107): > 64 µg/mL; MIC (C. glabrata; #21 C. glabrata TGL00056): > 64 µg/mL; MIC (C. glabrata; #22 C. glabrata M12): 0.002 µg/mL (≈ 0.00157 µM); MIC (C. glabrata; #23 C. glabrata TGL00270): 16 µg/mL (≈ 12.6 µM); MIC (C. glabrata; #24 C. glabrata TGL00269): 0.125 µg/mL (≈ 0.0984 µM); MIC (C. glabrata; #25 C. glabrata TGL00268): > 64 µg/mL; MIC (C. glabrata; #26 C. glabrata TGL00268): > 64 µg/mL; MIC (C. glabrata; #27 C. glabrata EB0911): 0.008 µg/mL (≈ 0.0063 µM); MIC (C. glabrata; #28 C. glabrata TGL00261): 4 µg/mL (≈ 3.15 µM); MIC (C. glabrata; #29 C. glabrata TGL00109): > 64 µg/mL; MIC (C. glabrata; #30 C. glabrata TGL00259): 32 µg/mL (≈ 25.2 µM)
